According to paper PMC12028158, “Synthesis and In Vitro Evaluation of the Anticancer Effect of Novel Phosphonium Vindoline Derivatives” (International Journal of Molecular Sciences, 2025):
Like-named read-outs stand apart in the source and are kept apart here.

Tests used:
Assay type in all cases: cell-based
[1] = system: TK-10; assay: NCI60 one-dose screen; settings: Homo sapiens, TK-10, read-out: Growth percent
[2] = system: A498; assay: NCI60 five-dose screen; settings: Homo sapiens, A498
[3] = system: SNB-19; assay: NCI60 five-dose screen; settings: Homo sapiens, SNB-19
[4] = system: HCC-2998; assay: NCI60 one-dose screen; settings: Homo sapiens, HCC 2998, read-out: Growth percent
[5] = system: Colon Cancer panel; assay: NCI60 five-dose screen, panel mean; settings: Homo sapiens
[6] = system: SF-295; assay: NCI60 five-dose screen; settings: Homo sapiens, SF-295
[7] = system: TK-10; assay: NCI60 five-dose screen; settings: Homo sapiens, TK-10
[8] = system: OVCAR-8; assay: NCI60 five-dose screen; settings: Homo sapiens, OVCAR-8
[9] = system: NCI/ADR-RES; assay: NCI60 one-dose screen; settings: Homo sapiens, read-out: Growth percent
[10] = system: SN12C; assay: NCI60 one-dose screen; settings: Homo sapiens, read-out: Growth percent
[11] = system: 786-0; assay: NCI60 one-dose screen; settings: Homo sapiens, 786-0, read-out: Growth percent
[12] = system: M14; assay: NCI60 five-dose screen; settings: Homo sapiens, M14
[13] = system: CCRF-CEM; assay: NCI60 five-dose screen; settings: Homo sapiens
[14] = system: T-47D; assay: NCI60 five-dose screen; settings: Homo sapiens, T47D
[15] = system: U251; assay: NCI60 five-dose screen; settings: Homo sapiens, U-251
[16] = system: IGROV1; assay: NCI60 five-dose screen; settings: Homo sapiens, IGROV-1
[17] = system: MDA-MB-435; assay: NCI60 one-dose screen; settings: Homo sapiens, MDA-MB-435, read-out: Growth percent
[18] = system: A549/ATCC; assay: NCI60 five-dose screen; settings: Homo sapiens, A549
[19] = system: A498; assay: NCI60 one-dose screen; settings: Homo sapiens, A498, read-out: Growth percent
[20] = system: U251; assay: NCI60 one-dose screen; settings: Homo sapiens, U-251, read-out: Growth percent
[21] = system: OVCAR-5; assay: NCI60 five-dose screen; settings: Homo sapiens, OVCAR-5
[22] = system: UACC-62; assay: NCI60 five-dose screen; settings: Homo sapiens, UACC-62
[23] = system: NCI-H522; assay: NCI60 five-dose screen; settings: Homo sapiens, NCI-H522
[24] = system: NCI-H226; assay: NCI60 five-dose screen; settings: Homo sapiens, NCI-H226
[25] = system: SK-MEL-5; assay: NCI60 one-dose screen; settings: Homo sapiens, SK-MEL-5, read-out: Growth percent
[26] = system: SF-268; assay: NCI60 one-dose screen; settings: Homo sapiens, SF-268, read-out: Growth percent
[27] = system: M14; assay: NCI60 one-dose screen; settings: Homo sapiens, M14, read-out: Growth percent
[28] = system: MOLT-4; assay: NCI60 five-dose screen; settings: Homo sapiens, MOLT-4
[29] = system: HCT-116; assay: NCI60 five-dose screen; settings: Homo sapiens, HCT-116
[30] = system: NCI-H522; assay: NCI60 one-dose screen; settings: Homo sapiens, NCI-H522, read-out: Growth percent
[31] = system: MDA-MB-468; assay: NCI60 five-dose screen; settings: Homo sapiens, MDA-MB-468
[32] = system: ACHN; assay: NCI60 five-dose screen; settings: Homo sapiens
[33] = system: EKVX; assay: NCI60 five-dose screen; settings: Homo sapiens
[34] = system: ACHN; assay: NCI60 one-dose screen; settings: Homo sapiens, read-out: Growth percent
[35] = system: HT29; assay: NCI60 five-dose screen; settings: Homo sapiens, HT-29
[36] = system: MDA-MB-231/ATCC; assay: NCI60 one-dose screen; settings: Homo sapiens, MDA-MB-231, read-out: Growth percent
[37] = system: SF-295; assay: NCI60 one-dose screen; settings: Homo sapiens, SF-295, read-out: Growth percent
[38] = system: SK-OV-3; assay: NCI60 one-dose screen; settings: Homo sapiens, SK-OV-3, read-out: Growth percent
[39] = system: MDA-MB-468; assay: NCI60 one-dose screen; settings: Homo sapiens, MDA-MB-468, read-out: Growth percent
[40] = system: IGROV1; assay: NCI60 one-dose screen; settings: Homo sapiens, IGROV-1, read-out: Growth percent
[41] = system: NCI-H460; assay: NCI60 one-dose screen; settings: Homo sapiens, NCI-H460, read-out: Growth percent
[42] = system: HS 578T; assay: NCI60 one-dose screen; settings: Homo sapiens, Hs-578T, read-out: Growth percent
[43] = system: HOP-92; assay: NCI60 five-dose screen; settings: Homo sapiens, HOP-92
[44] = system: SR; assay: NCI60 one-dose screen; settings: Homo sapiens, read-out: Growth percent
[45] = system: Prostate Cancer panel; assay: NCI60 five-dose screen, panel mean; settings: Homo sapiens
[46] = system: MCF7; assay: NCI60 one-dose screen; settings: Homo sapiens, MCF7, read-out: Growth percent
[47] = system: DU-145; assay: NCI60 one-dose screen; settings: Homo sapiens, DU-145, read-out: Growth percent

## CC[C@]12C=CCN3CC[C@@]4(c5ccc(OC)cc5N(C)[C@H]4[C@@](O)(C(=O)OC)[C@@H]1OC(=O)CCC[P+](c1ccccc1)(c1ccccc1)c1ccccc1OC)[C@@H]32 [9f]
[1]
  activity at 10 µM: -88.5%
[2]
  GI50: 2650 nM
[3]
  GI50: 313 nM
[4]
  activity at 10 µM: -93.1%
[5]; read-out: Mean GI50
  GI50: 1610 nM
[6]
  GI50: 1830 nM
[7]
  GI50: 1940 nM
[8]
  GI50: 790 nM
[9]
  activity at 10 µM: 75.9%
[10]
  activity at 10 µM: -80.6%
[11]
  activity at 10 µM: -74.1%
[12]
  GI50: 1060 nM
[13]
  GI50: 256 nM
[14]
  GI50: 302 nM
[15]
  GI50: 248 nM
[16]
  GI50: 510 nM
[17]
  activity at 10 µM: -73.7%
[18]
  GI50: 945 nM
[19]
  activity at 10 µM: -10.4%
[20]
  activity at 10 µM: -96.9%
[21]
  GI50: 735 nM
[22]
  GI50: 286 nM
[23]
  GI50: 339 nM
[24]
  GI50: 1210 nM
[25]
  activity at 10 µM: -98.4%
[26]
  activity at 10 µM: -76.1%
[27]
  activity at 10 µM: -82.9%
[28]
  GI50: 419 nM
[29]
  GI50: 383 nM
[30]
  activity at 10 µM: -70.4%
[31]
  GI50: 129 nM
[32]
  GI50: 4580 nM
[33]
  GI50: 1220 nM
[34]
  activity at 10 µM: 0.6%
[35]
  GI50: 356 nM
[36]
  activity at 10 µM: -94.5%
[37]
  activity at 10 µM: -42.3%
[38]
  activity at 10 µM: -33.4%
[39]
  activity at 10 µM: -84.6%
[40]
  activity at 10 µM: -43.2%
[41]
  activity at 10 µM: -26.9%
[42]
  activity at 10 µM: -47.4%
[43]
  GI50: 172 nM
[44]
  activity at 10 µM: -7.49%
[45]; read-out: Mean GI50
  GI50: 340 nM
[46]
  activity at 10 µM: -68.1%
[47]
  activity at 10 µM: 1.94%

## CC[C@]12C=CCN3CC[C@@]4(c5ccc(OC)cc5N(C)[C@H]4[C@@](O)(C(=O)OC)[C@@H]1OC(=O)CCCC[P+](c1ccc(C)cc1)(c1ccc(C)cc1)c1ccc(C)cc1)[C@@H]32 [10a]
[1]
  activity at 10 µM: -91.2%
[2]
  GI50: 2170 nM
[3]
  GI50: 960 nM
[4]
  activity at 10 µM: -85.8%
[5]; read-out: GI50 Mean
  GI50: 720 nM
[6]
  GI50: 1620 nM
[7]
  GI50: 1490 nM
[8]
  GI50: 1130 nM
[9]
  activity at 10 µM: 71.8%
[10]
  activity at 10 µM: -88.5%
[11]
  activity at 10 µM: -91%
[12]
  GI50: 1110 nM
[13]
  GI50: 768 nM
[14]
  GI50: 370 nM
[15]
  GI50: 470 nM
[16]
  GI50: 479 nM
[17]
  activity at 10 µM: -86.8%
[18]
  GI50: 819 nM
[19]
  activity at 10 µM: -90.9%
[20]
  activity at 10 µM: -93.6%
[21]
  GI50: 1440 nM
[22]
  GI50: 705 nM
[23]
  GI50: 306 nM
[24]
  GI50: 1430 nM
[25]
  activity at 10 µM: -98.5%
[26]
  activity at 10 µM: -61.1%
[27]
  activity at 10 µM: -88.3%
[28]
  GI50: 611 nM
[29]
  GI50: 452 nM
[30]
  activity at 10 µM: -82.7%
[31]
  GI50: 264 nM
[32]
  GI50: 2540 nM
[33]
  GI50: 1050 nM
[34]
  activity at 10 µM: -99.3%
[35]
  GI50: 358 nM
[36]
  activity at 10 µM: -97.2%
[37]
  activity at 10 µM: -91.8%
[38]
  activity at 10 µM: -82.3%
[39]
  activity at 10 µM: -92.5%
[40]
  activity at 10 µM: -91.8%
[41]
  activity at 10 µM: -86.6%
[42]
  activity at 10 µM: -69.9%
[43]
  GI50: 490 nM
[44]
  activity at 10 µM: 25.8%
[45]; read-out: GI50 Mean
  GI50: 800 nM
[46]
  activity at 10 µM: -81.2%
[47]
  activity at 10 µM: -84.5%
